Numbered stars: 1 amine (or outer) side, 2 acyl side, 3 side chain; on linkers, the order of the positions; unused ones are H or OH. Bridge positions count the residues as written; N and C are the ends. Square brackets hold non-standard residues; d marks the D form. Peptide text beside a SMILES is read from it. X1 = O=C(C1(O)C[C@H](O)[C@@H](N[*:1])[C@H]([C@H](O)[C@H](O)CO)O1)[*:2]; X2 = CC(=O)NC(C(=O)OC(C(C)C)C(N[*:1])C(=O)[*:2])C(O)C(C)C; NMeW = CN[C@@H](Cc1c[nH]c2ccccc12)C(=O)O; Phe(3-Br) = N[C@@H](Cc1cccc(Br)c1)C(=O)O; PhLac = O=C(O)[CH](O)Cc1ccccc1; NMeT = CN[CH](C(=O)O)[CH](C)O; Nle = CCCC[C@H](N)C(=O)O; NMeA = CN[CH](C)C(=O)O; NMeDha = C=C(NC)C(=O)O
How the values were obtained:
CCKBR [1] = molecular target: T1, CCKBR (Homo sapiens, UniProt P32239); assay: Calcium mobilization assay; assay type: cell-based; details: screening
T1 sequence (P32239 1-447): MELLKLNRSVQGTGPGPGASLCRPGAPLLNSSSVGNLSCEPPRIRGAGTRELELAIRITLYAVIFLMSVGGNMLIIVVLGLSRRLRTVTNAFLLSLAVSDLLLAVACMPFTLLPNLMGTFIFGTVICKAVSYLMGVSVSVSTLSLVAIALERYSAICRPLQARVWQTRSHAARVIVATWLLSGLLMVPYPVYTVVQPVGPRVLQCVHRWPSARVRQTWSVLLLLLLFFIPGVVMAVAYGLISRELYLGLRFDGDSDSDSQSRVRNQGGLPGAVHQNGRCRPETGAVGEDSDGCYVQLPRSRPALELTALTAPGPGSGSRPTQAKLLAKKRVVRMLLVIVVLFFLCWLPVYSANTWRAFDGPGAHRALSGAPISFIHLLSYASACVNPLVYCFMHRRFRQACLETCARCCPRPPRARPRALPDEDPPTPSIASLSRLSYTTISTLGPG

CCKBR [2] = molecular target: T1, CCKBR; assay: PRESTO-Tango assay; assay type: cell-based; details: screening
[3] = system: CCKBR-LTP in the auditory cortex; assay: MEA recording, TBS-induced CCKBR-LTP in auditory cortex slices of C57 mice; parameters: species or system mouse; details: for Effect on TBS-induced CCKBR-LTP: one-hour preincubation: 100 nM YF476, 10 μM U-73122, 50 μM 2-APB, 20 μM YM254890, 100 μM barbadin, 10 μM H-89, 300 ng PTX injected into AC 24-48 h before
GPR173 / β-arrestin1 = GPR173 / β-arrestin1 (Homo sapiens, UniProt Q9NS66); assay: BRET-based β-arrestin1 assay, 293T-GPR173 cells; assay type: cell-based; details: up to 10 μM
[4] = system: CCKBR-LTP in the auditory cortex; assay: MEA recording, drug plus LFS-induced LTP in auditory cortex slices; parameters: species or system mouse; details: 200 nM, 10 min, AC slices of C57 mice
GPR173 / β-arrestin2 = GPR173 / β-arrestin2 (Homo sapiens, UniProt Q9NS66); assay: BRET-based β-arrestin2 assay, 293T-GPR173 cells; assay type: cell-based; details: up to 10 μM
GPR173 / β-arrestin2, sequence (Q9NS66 whole entry): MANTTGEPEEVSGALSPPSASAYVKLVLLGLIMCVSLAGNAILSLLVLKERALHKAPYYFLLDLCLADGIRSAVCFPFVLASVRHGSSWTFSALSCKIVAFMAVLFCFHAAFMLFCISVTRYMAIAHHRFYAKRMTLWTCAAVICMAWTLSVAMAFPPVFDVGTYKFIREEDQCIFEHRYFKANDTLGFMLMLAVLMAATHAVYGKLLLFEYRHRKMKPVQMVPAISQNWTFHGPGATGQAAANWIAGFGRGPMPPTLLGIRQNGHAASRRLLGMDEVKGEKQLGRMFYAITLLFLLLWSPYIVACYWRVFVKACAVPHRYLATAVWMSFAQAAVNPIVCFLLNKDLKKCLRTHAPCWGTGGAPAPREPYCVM

GPR173 / β-arrestin1, sequence (Q9NS66 whole entry): as above

SMILES	Effect on TBS-induced CCKBR-LTP [3]	other results
CCCC[C@H](NC(=O)[C@H](Cc1c[nH]c2ccccc12)N(C)C(=O)C1(O)C[C@H](O)[C@@H](NC(C)=O)[C@H]([C@H](O)[C@H](O)CO)O1)C(=O)N[C@@H](CC(=O)O)C(=O)N[C@@H](Cc1cccc(Br)c1)C(N)=O (stereo partly drawn) [MF-7] (Ac-[X1][NMeW][Nle]D[Phe(3-Br)]-NH2)	–	Activation of Gαq/11-Ca2+ signaling (CCKBR [1]): performed poorly; Induction of β-arrestin2 signaling (CCKBR [2]): highly potent
Nn1cnc2scc(-c3ccc(Cc4ccccc4)cc3)c2c1=O [barbadin]	could not inhibit	Effect on the inhibition of TBS-induced LTP by MF-8 ([3]; 2-h preincubation of barbadin + 200 nM MF-8): could indeed eliminate the inhibitory effect of MF-8
CSCC[C@H](NC(=O)[C@H](Cc1ccc(OS(=O)(=O)O)cc1)NC(=O)[C@@H](N)CC(=O)O)C(=O)NCC(=O)N[C@@H](Cc1c[nH]c2ccccc12)C(=O)N[C@@H](CCSC)C(=O)N[C@@H](CC(=O)O)C(=O)N[C@@H](Cc1ccccc1)C(N)=O [CCK8s]	–	Activation of β-arrestin1 downstream of GPR173 (GPR173 / β-arrestin1): could activate; LTP induction by drug with LFS (fEPSP amplitude) [4]: induced LTP; Activation of β-arrestin2 downstream of GPR173 (GPR173 / β-arrestin2): could activate
COc1ccc2c(c1)CC[C@@H]1[C@@H]2CC[C@]2(C)[C@@H](NCCCCCCN3C(=O)C=CC3=O)CC[C@@H]12 [U-73122]	significantly and almost completely inhibited	–
NCCOB(c1ccccc1)c1ccccc1 [2-APB]	significantly and almost completely inhibited	–
CNc1cccc(NC(=O)N[C@@H]2N=C(c3ccccn3)c3ccccc3N(CC(=O)C(C)(C)C)C2=O)c1 [YF476]	confirmed that the LTP was CCKBR-dependent	–
O=S(=O)(NCCNC/C=C/c1ccc(Br)cc1)c1cccc2cnccc12 [H-89]	partially inhibited	–
C=C1C(=O)NC(C)C(=O)N(C)C(C)C(=O)NC(C(OC(=O)C(NC(C)=O)C(O)C(C)C)C(C)C)C(=O)N(C)C(C(C)OC)C(=O)OC(C)C(NC(C)=O)C(=O)OC(Cc2ccccc2)C(=O)N1C (stereo not drawn) [YM254890] (Ac-T[PhLac][NMeDha]A[NMeA][X2][NMeT](Me); ester 1-C; configuration not given here)	significantly and almost completely inhibited	–
